The source of these data is US20210275514A1, “COMPOUNDS FOR USE IN TREATING KIDNEY DISORDERS” (Hoffmann-La Roche Inc., priority 2018, published 2021).

“Also recorded” adds a separate entry of the source.

In the assay the test system is ABCA1. Kind of assay: ABCA1 expression by western blot in differentiated podocytes. Type of assay: cell-based, human. The following applies: 18 h. How it is done:
Podocytes differentiated for 14 days were starved in RPMI-0.2% FBS for 18 h and then treated with freshly prepared dilutions of compounds in full media for 18 h at 37° C. and 5% CO2. Compound concentrations of 1 μM, 5 μM and 10 μM were evaluated. Cells were then washed with PBS and lysed with 1× cell lysis buffer (Cell Signaling) supplemented with protease and phosphatase inhibitor cocktails (Roche). Total protein content was determined by BCA method (Pierce, Thermoscientific). ABCA1 expression was analyzed by western blot.
Lysates, or cell fractions were incubated with buffer sample at 55° C. for 10 min under reducing conditions. A total of […] of protein in lysates, and one third of the volume collected in cell fraction preps, were separated by SDSPAGE in 4-20% gels (Biorad) and proteins were then transferred to PVDF membranes. Membranes were blocked with 5% milk and blotted with protein-specific antibodies for 18 h at 4° C. The following antibodies were used: mouse anti-ABCA1 (Abcam; 1:1,000), rabbit anti-GAPDH antibody (Millipore; 1:10,000), rabbit anti-MEK and anti-Na^+/K^+ ATPase (Cell Signaling; 1:1,000). After washing with PBS-T, membranes were incubated with anti-mouse and anti-rabbit specific antibodies conjugated to HRP (Promega) 1:10,000 in 5% milk. Membranes were washed and signal was developed using Western bright ECL substrate (Advansta).
(In western blotting, separated proteins are transferred to a membrane and probed.)

Regarding `O=C(Nc1cncnc1)c1ccc(OCC(F)(F)F)c(-c2ccc(Cl)cc2)n1` [Cpd F, 6-(4-chlorophenyl)-N-(pyrimidin-5-yl)-5-(2,2,2-trifluoroethoxy)picolinamide], the “ABCA1 expression (western blot, whole cell lysates)” value (“ABCA1 expression” below) (1 μM, 5 μM and 10 μM evaluated) was “only Cpd A, and Cpd G, increased ABCA1 expression”.
For `Cc1nnc([C@](F)([C@H]2Cc3[nH]c4ccc(Cl)cc4c3C2)S(=O)(=O)c2ccccc2)o1` [Cpd E, (R)-2-[(S)-Benzenesulfonyl-fluoro-(5-methyl-[1,3,4]oxadiazol-2-yl)-methyl]-7-chloro-1,2,3,4-tetrahydro-cyclopenta[b]indole], the “ABCA1 expression” value (doses as low as 1 uM, FIG. 4A) is “strong induction; also recorded: markedly increased”.
Turning to `O=C(O)c1ccc(-c2nnc([C@](F)([C@H]3Cc4[nH]c5ccc(Cl)cc5c4C3)S(=O)(=O)c3cccc(Br)c3)o2)cc1` (racemic) [Cpd D, 4-{5-[(RS)-(3-Bromo-benzenesulfonyl)-((SR)-7-chloro-1,2,3,4-tetrahydro-cyclopenta[b]indol-2-yl)-fluoro-methyl]-[1,3,4]oxadiazol-2-yl}-benzoic acid], for the setting “doses as low as 1 uM, FIG. 4A”, the “ABCA1 expression” value is listed as “strong induction; also recorded: markedly increased”.
